In paper PMC8717366, “Synthesis and Pharmacological Characterization of Visabron, a Backbone Cyclic Peptide Dual Antagonist of α4β1 (VLA-4)/α9β1 Integrin for Therapy of Multiple Sclerosis” (JACS Au, 2021):
Like-named read-outs stand apart in the source and are kept apart here. Numbered stars: 1 amine (or outer) side, 2 acyl side, 3 side chain; on linkers, the order of the positions; unused ones are H or OH. Bridge positions count the residues as written; N and C are the ends. Square brackets hold non-standard residues; d marks the D form. Peptide text beside a SMILES is read from it. N(2-Aminoethyl)Gly = O=C(CN(CCN[*:3])[*:1])[*:2]; CO = O=C([*:1])[*:2]; Nlys = NCCCCNCC(=O)O

Experiments:
α4β7-MAdCAM-1 Fc chimera = target: T1, α4β7-MAdCAM-1 Fc chimera (Homo sapiens, UniProt P13612+P26010); experiment: ELISA solid-phase ligand-receptor binding, integrin α4β7 to MAdCAM-1 Fc chimera
T1 construct: purchased R&D Systems Co (Minneapolis, MN)
Description: (§1) Recombinant human VCAM-1 and MadCAM-1 (3 mg/mL in phosphate-buffered saline containing divalent cations), were immobilized on the wells of a 96-well ELISA plate (Dynatech Immulon) by overnight incubation at 4 °C. After washing with HBSST (Hanks’ Balanced Salt solution containing calcium and magnesium and 0.05% Tween-20) the plates were blocked with 5% BSA in HBSST by incubation at 37 °C for 1 h. The plates were washed with HBSST, and recombinant human integrin α4β1 or α4β7 (3 mg/mL) was added in the presence or absence of competitor cyclic peptides, disintegrins, or monoclonal anti-integrin antibodies dissolved in HBSS containing 1% BSA. The plates were thereafter incubated at 30 °C for 3 h, as time-binding had reached a plateau, and then washed 3 times with HBSST. Bound integrins were quantitated using primary anti-integrin polyclonal and monoclonal antibodies at a concentration of 0.5 mg/mL in HBSST containing 1% BSA, and incubated at 37 °C for 1 h. The plates were washed 3 times with HBSST and secondary antibodies- alkaline phosphatase (AP) conjugated (Sigma Co.) were added at dilution 1:1000 and incubated at 37 °C for 1 h. Thereafter, the plates were washed 3 times with HBSST and twice with HBSS and the alkaline phosphatase substrate 4-nitrophenyl phosphate was added to the wells for 30 min. The plates were read using Tecan Spectrophotometer at 405 nm. The level of nonspecific binding was measured in each experiment by determining the level of binding to wells coated with BSA alone.

[1] = target: T2, α4β1 (Jurkat lymphocytes-VCAM-1) (Homo sapiens, UniProt P05556+P13612); experiment: Adhesion of Jurkat lymphocytes to immobilized VCAM-1; type: cell-based
T2 construct: host or cells: Jurkat (untreated or TNFα-treated)
Description: (§2) Cell adhesion assay was carried out as previously described[47] with minor modifications. The day before the experiment, each well was coated with VCAM-1 (3 mg/mL) immobilized on the 96-well plate in PBS by overnight incubation at 4 °C. Thereafter, nonspecific binding was blocked by incubating the wells with 1% (w/v) bovine serum albumin (BSA) in Hank’s Balanced Salt Solution (HBSS) containing 5 mM MgCl2 at room temperature for 1 h before use. The cells were labeled by incubation with 12.5 μM 5-chloromethylfluorescein diacetate (CMFDA) in HBSS without 1% BSA at 37 °C for 30 min. The labeled cells were then centrifuged at 1000 rpm and washed twice with HBSS containing 1% BSA to remove excess CMFDA. Labeled cells (about 1 × 10^5 cells/well) were plated on each well in the presence or absence of visabrons and incubated at 37 °C for 60 min. Unbound cells were removed by washing the wells three times with 1% (w/v) BSA in HBSS, and bound cells were lysed by the addition of 0.5% Triton X-100 (diluted in DDW). The fluorescence in each well was quantified with a SPECTRAFluor Plus plate reader (Tecan), at λex = 485 nm and λem = 530 nm. To determine the number of adhered cells from the fluorescence values, a standard curve was generated by serial dilution of known numbers of CMFDA-labeled cells. […]
(§3) Table S6. TMLD- linear peptides inhibition of adhesion of integrin expressing cells to the respective immobilized ligands a a The cells were incubated for 30 min at 37 °C with the cells (1 x 105) in the 96 -well plate, previously covered with extracellular matrix ligand, in 100 µL of HBSS containing calcium and magnesium. After being washed with the same buffer, the adhered cells were lysed by Triton X-100, and the plate was read using Tecan spectrofluorimeter. The inhibitory dose 50% (IC 50) values represent ing mean ± standard deviatio ns (n=6) were calculated from dose response curves. bJurkat cells,VCAM -1; c α9-SW480 overexpressing cells, VCAM-1; d α1-K562 overexpressing cells, collagen IV ;e α2-K562 overexpressing cells, collagen I; f K562 wild type

α9β1-VCAM-1 Fc chimera = α9β1-VCAM-1 Fc chimera (Homo sapiens, UniProt P05556+Q13797); experiment: ELISA binding assay, α9β1 to VCAM-1 Fc chimera
α1β1-collagen IV = target: T3, α1β1-collagen IV (Homo sapiens, UniProt P05556+P56199); experiment: Adhesion of α1-K562 overexpressor cells to immobilized collagen IV; type: cell-based; settings: α1-K562 overexpressed cells; 30 min at 37 °C; read-out: IC50 α1β1-collagen IV
T3 construct: expressed in transfected cells; host or cells: K562 transfected with α1 integrin (gift of Dr. M. Hemler)
Description: as §2, §3

α5β1-fibronectin = target: T4, α5β1-fibronectin (Homo sapiens, UniProt P05556+P08648); experiment: Adhesion of wild-type K562 cells to immobilized fibronectin; type: cell-based; settings: wild-type K562 (α5β1); 30 min at 37 °C; read-out: IC50 α5β1-fibronectin
T4 construct: host or cells: K562 wild type
Description: as §2, §3

α4β1-VCAM-1 Fc chimera = target: T5, α4β1-VCAM-1 Fc chimera (Homo sapiens, UniProt P05556+P13612); experiment: ELISA solid-phase ligand-receptor binding, integrin α4β1 to VCAM-1 Fc chimera
T5 construct: purchased R&D Systems Co (Minneapolis, MN)
Description: as §1

α2β1-collagen I = target: T6, α2β1-collagen I (Homo sapiens, UniProt P05556+P17301); experiment: Adhesion of α2-K562 overexpressor cells to immobilized collagen I; type: cell-based; settings: α2-K562 overexpressed cells; 30 min at 37 °C; read-out: IC50 α2β1-collagen I
T6 construct: expressed in transfected cells; host or cells: K562 transfected with α2 integrin (gift of Dr. M. Hemler)
Description: as §2, §3

[2] = Jurkat treated with TNF-α (10 ng/mL) for 24 h, read-out: IC50 Jurkat lymphocytes-VACAM-1 TNFα
[3] = untreated Jurkat lymphocytes (α4β1), read-out: IC50 Jurkat lymphocytes-VACAM-1 control

Sequence of α9β1-VCAM-1 Fc chimera (Q13797 30-1035, change not shown): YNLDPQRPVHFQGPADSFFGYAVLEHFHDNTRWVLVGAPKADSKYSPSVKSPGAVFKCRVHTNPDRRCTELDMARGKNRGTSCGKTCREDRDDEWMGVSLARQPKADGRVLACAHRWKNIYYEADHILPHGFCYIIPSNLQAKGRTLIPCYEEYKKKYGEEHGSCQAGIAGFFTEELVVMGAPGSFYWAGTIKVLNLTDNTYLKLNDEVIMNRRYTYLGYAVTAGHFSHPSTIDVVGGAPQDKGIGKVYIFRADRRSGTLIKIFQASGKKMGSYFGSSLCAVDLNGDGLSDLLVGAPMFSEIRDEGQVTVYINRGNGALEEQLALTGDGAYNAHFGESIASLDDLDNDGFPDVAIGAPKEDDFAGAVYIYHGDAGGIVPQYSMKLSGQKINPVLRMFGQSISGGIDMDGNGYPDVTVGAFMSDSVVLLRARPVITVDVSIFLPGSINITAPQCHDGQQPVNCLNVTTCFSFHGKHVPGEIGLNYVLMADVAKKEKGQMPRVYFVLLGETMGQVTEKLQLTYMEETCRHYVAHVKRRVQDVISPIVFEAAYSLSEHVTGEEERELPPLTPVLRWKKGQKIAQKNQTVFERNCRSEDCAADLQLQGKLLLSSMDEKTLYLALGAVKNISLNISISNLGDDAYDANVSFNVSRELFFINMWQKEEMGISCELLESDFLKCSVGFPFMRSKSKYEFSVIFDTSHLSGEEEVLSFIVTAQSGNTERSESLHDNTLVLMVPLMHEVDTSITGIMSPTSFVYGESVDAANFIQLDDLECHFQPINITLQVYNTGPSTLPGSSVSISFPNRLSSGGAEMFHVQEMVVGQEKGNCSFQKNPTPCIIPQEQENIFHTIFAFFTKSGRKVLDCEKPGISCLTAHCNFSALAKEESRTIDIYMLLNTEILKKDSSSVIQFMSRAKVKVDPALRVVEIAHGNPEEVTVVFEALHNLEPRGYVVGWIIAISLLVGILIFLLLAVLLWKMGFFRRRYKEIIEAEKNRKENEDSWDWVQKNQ
Sequence of α9β1-VCAM-1 Fc chimera (P05556 21-798, change not shown): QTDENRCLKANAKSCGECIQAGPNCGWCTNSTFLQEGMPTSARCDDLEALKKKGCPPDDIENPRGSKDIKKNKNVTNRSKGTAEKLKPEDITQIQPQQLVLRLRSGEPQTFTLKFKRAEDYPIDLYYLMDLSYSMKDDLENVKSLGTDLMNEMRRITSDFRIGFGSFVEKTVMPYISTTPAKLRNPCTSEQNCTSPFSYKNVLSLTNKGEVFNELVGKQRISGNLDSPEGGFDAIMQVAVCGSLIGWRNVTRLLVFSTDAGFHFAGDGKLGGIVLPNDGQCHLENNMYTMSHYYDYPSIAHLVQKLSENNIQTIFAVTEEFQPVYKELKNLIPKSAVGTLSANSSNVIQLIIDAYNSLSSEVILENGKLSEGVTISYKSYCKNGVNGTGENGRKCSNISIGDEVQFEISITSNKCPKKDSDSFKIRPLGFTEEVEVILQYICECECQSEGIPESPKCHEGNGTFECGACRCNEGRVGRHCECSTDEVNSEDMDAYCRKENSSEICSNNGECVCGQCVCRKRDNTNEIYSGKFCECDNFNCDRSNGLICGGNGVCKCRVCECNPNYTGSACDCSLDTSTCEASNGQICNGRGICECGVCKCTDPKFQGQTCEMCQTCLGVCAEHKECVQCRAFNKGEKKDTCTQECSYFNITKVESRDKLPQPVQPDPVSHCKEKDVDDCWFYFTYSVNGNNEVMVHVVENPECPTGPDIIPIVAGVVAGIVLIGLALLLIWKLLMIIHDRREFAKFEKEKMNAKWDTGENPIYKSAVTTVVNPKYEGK
T4 sequence (P08648 42-894 limits assumed): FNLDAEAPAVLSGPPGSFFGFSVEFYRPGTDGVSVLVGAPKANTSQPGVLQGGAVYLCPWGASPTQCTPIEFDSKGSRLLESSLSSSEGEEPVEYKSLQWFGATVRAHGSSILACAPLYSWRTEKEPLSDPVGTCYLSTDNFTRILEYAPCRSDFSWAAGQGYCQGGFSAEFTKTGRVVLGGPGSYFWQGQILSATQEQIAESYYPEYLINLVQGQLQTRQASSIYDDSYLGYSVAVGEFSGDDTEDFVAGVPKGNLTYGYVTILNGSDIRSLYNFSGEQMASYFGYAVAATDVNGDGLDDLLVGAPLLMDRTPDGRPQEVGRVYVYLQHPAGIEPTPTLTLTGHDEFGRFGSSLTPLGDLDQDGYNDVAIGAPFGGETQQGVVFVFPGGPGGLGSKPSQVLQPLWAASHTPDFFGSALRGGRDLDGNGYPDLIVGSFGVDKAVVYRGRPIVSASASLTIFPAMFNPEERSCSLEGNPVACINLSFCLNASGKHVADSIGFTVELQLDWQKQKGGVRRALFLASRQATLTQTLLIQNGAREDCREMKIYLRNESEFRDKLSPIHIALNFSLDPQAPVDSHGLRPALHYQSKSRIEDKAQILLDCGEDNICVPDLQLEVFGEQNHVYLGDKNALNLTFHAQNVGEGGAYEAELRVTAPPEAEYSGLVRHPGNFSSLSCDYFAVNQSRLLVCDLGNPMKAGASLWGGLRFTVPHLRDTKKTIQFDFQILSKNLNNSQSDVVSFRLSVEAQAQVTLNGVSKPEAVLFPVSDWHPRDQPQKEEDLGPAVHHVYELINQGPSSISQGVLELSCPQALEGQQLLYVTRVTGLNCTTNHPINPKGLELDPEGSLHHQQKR
T4 sequence (P08648 895-1049 limits assumed): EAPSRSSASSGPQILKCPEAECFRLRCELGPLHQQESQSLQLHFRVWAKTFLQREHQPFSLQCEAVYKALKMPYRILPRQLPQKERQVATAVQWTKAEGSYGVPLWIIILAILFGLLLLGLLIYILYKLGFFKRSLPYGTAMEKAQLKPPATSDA
T4 sequence (P05556 21-798): as the sequence (P05556 21-798, change not shown) above
T3 sequence (P56199 29-1179): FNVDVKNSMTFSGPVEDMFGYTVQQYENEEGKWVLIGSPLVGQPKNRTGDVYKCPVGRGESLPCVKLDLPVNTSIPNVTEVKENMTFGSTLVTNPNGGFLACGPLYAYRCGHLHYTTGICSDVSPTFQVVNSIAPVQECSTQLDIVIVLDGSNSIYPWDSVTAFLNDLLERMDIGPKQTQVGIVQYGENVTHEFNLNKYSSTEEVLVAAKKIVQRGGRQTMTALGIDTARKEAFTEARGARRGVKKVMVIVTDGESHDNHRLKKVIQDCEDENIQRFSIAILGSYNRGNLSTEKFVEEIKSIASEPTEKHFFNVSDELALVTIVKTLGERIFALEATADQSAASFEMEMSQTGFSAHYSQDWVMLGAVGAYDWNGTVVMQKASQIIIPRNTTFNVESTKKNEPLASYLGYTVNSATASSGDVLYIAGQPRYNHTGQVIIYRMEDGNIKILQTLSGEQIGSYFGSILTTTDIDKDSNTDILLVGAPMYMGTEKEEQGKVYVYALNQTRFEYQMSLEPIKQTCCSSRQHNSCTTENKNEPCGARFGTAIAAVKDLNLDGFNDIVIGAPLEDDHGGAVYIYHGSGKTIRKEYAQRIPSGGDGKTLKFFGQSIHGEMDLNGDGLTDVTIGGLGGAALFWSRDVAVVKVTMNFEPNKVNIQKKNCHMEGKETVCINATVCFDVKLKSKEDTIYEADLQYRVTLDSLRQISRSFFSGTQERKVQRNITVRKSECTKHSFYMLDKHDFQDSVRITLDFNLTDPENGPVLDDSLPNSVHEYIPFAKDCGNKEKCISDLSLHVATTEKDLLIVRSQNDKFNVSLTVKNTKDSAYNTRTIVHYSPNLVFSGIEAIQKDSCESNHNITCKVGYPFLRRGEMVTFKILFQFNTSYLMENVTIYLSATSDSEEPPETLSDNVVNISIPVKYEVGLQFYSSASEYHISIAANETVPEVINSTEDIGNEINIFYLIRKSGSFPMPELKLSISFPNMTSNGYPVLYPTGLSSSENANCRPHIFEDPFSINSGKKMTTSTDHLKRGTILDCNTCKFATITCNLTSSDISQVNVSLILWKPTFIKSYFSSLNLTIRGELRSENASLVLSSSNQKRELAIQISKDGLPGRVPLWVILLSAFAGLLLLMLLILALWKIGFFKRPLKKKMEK
T3 sequence (P05556 21-798): as the sequence (P05556 21-798, change not shown) above

Molecule	IC50 (α4β7-MAdCAM-1 Fc chimera) [µM]	IC50 [1, 2] [µM]	IC50 [1, 3] [µM]	IC50 (α9β1-VCAM-1 Fc chimera) [µM]	IC50 (α1β1-collagen IV) [µM]	IC50 (α5β1-fibronectin) [µM]	IC50 (α4β1-VCAM-1 Fc chimera) [µM]	IC50 (α2β1-collagen I) [µM]	IC50 (α4β7-MAdCAM-1 Fc chimera; ELISA binding assay, recombinant human MAdCAM-1 chimera, read-out: IC50 α4β7-MAdCAM-1 Fc chimera) [µM]	IC50 (α9β1-VCAM-1 Fc chimera; ELISA binding assay per footnote b, α9-B1LBC3 overexpressed cells named in footnote a, read-out: IC50 α9β1-VCAM-1 Fc chimera) [µM]	IC50 (α4β1-VCAM-1 Fc chimera; ELISA binding assay, recombinant human VCAM-1 chimera, read-out: IC50 α4β1-VCAM-1 Fc chimera) [µM]
CSCC[C@@H]1NC(=O)[C@H]([C@@H](C)O)NC(=O)CN(C(=O)[C@@H](N)CCCCN)CCCCNC(=O)NCCCCN(CC(=O)N[C@@H](CC(C)C)C(N)=O)C(=O)[C@H](CC(=O)O)NC(=O)[C@H](CC(C)C)NC1=O [visabron c (4–4)] (H-K[Nlys]TMLD[Nlys]L-NH2; linker 2-7 via CO)	> 500	0.4	5	0.4	> 10000	> 10000	0.4	> 10000			
natalizumab: clinical-grade monoclonal antibody anti-α4β1 produced by Biogen Co. [reference compound]		0.002	0.005		> 10000	> 10000		> 10000	0.015	0.015	0.01
CSCC[C@@H]1NC(=O)[C@H]([C@@H](C)O)NC(=O)CN(C(=O)[C@@H](N)CCCCN)CCNC(=O)NCCN(CC(=O)N[C@@H](CC(C)C)C(N)=O)C(=O)[C@H](CC(=O)O)NC(=O)[C@H](CC(C)C)NC1=O [visabron c (2–2)] (H-K[N(2-Aminoethyl)Gly]TMLD[N(2-Aminoethyl)Gly]L-NH2; linker 2-7 via CO)	> 500	0.5	7	3.6	> 10000	> 10000	2.3	> 10000			
